Drawing on ChEMBL document CHEMBL5653615 (J Biol Chem, 2013), this text covers inhibition for two compounds.

What is called inhibition is the relative decrease from the control value, in per cent.

Assay [1] concerns the target Mitogen-activated protein kinase kinase kinase 11 (Homo sapiens) (UniProt Q16584). Nature of the assay: Inhibition of human MAP3K11 at 18.6 nM by HotSpot assay relative to control.
Assay [2] deals with MAP kinase-interacting serine/threonine-protein kinase 2 (Homo sapiens) (UniProt Q9HBH9). Nature of the assay: Inhibition of human MNK2 at 18.6 nM by HotSpot assay relative to control.
Assay [3] has as its target T1, Testis-specific serine/threonine-protein kinase 2 (Homo sapiens) (UniProt Q96PF2).
T1 sequence (whole entry): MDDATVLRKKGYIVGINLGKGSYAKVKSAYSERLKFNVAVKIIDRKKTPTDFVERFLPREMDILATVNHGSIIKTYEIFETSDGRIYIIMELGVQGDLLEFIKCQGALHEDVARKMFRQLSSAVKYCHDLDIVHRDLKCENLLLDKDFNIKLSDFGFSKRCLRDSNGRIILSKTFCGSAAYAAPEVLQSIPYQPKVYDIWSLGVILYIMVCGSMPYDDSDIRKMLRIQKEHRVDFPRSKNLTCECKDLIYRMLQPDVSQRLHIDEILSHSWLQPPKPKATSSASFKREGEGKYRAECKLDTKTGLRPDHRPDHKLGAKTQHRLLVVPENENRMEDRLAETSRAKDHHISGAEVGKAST
The assay can be described thus: Inhibition of human TSSK2 at 18.6 nM by HotSpot assay relative to control.

The target in assay [4] is T2, Aurora kinase A (Homo sapiens) (UniProt O14965).
T2 sequence (whole entry): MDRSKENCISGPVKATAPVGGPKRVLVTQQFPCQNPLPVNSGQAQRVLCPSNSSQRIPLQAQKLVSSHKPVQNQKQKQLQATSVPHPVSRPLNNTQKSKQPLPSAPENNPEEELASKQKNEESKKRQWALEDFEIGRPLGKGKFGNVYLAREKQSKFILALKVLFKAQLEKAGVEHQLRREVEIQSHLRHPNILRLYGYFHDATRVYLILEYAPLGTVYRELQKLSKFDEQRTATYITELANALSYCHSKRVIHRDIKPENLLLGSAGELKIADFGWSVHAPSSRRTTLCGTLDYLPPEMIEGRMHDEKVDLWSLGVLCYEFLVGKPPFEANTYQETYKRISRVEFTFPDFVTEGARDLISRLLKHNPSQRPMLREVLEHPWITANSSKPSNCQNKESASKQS
The assay can be described thus: Inhibition of human Aurora A at 1.82 nM by HotSpot assay relative to control.

Assay [5] deals with T3, Cytoplasmic tyrosine-protein kinase BMX (Homo sapiens) (UniProt P51813).
T3 sequence (whole entry): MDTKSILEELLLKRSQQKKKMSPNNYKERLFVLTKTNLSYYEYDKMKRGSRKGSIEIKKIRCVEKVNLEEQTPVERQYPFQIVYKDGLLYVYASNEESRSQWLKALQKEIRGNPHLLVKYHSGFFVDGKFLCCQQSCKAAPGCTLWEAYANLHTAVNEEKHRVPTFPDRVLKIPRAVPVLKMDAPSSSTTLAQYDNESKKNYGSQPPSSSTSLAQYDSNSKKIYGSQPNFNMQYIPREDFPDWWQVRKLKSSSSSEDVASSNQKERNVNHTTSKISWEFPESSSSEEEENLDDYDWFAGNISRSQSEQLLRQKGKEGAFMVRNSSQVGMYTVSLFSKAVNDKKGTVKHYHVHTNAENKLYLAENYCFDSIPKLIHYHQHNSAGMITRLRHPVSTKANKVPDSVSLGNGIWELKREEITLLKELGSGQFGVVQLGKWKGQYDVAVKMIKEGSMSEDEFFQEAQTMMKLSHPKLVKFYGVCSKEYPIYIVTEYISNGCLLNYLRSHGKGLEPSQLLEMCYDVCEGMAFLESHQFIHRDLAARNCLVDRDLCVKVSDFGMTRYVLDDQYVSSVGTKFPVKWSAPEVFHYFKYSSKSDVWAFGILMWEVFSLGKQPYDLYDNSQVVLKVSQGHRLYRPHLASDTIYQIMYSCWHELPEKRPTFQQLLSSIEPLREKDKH
Nature of the assay: Inhibition of human BMX at 1.82 nM by HotSpot assay relative to control.

The target of assay [6] is Tyrosine-protein kinase CSK (Homo sapiens) (UniProt P41240). The assay can be described thus: Inhibition of human CSK at 1.82 nM by HotSpot assay relative to control.
Assay [7] deals with T4, Serine/threonine-protein kinase Sgk1 (Homo sapiens) (UniProt O00141).
T4 sequence (whole entry): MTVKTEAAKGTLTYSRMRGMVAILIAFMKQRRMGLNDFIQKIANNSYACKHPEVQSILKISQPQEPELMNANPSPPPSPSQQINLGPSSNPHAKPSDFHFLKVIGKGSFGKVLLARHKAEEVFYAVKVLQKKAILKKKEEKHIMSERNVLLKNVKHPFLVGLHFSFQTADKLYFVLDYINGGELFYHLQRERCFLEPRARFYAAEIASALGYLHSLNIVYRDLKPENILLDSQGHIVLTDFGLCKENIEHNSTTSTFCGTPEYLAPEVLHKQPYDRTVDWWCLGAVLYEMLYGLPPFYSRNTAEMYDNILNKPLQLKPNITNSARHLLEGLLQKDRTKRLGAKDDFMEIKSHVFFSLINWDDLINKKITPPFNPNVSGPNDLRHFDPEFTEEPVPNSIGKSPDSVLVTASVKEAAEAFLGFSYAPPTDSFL
Nature of the assay: Inhibition of human SGK1 at 1.82 nM by HotSpot assay relative to control.

The target of assay [8] is T5, Serine/threonine-protein kinase Sgk2 (Homo sapiens) (UniProt Q9HBY8).
T5 sequence (whole entry): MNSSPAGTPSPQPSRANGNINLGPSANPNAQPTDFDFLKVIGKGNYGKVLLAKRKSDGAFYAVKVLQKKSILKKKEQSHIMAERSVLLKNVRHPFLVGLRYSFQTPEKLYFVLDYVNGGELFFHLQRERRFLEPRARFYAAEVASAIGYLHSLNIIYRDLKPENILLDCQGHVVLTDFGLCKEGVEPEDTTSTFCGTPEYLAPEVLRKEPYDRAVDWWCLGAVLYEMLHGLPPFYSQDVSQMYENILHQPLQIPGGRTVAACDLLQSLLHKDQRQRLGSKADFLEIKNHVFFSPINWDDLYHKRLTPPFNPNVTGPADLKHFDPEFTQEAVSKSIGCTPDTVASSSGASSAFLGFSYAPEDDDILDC
Nature of the assay: Inhibition of human SGK2 at 1.82 nM by HotSpot assay relative to control.

Sequence of Tyrosine-protein kinase CSK (Homo sapiens) (P41240 2-450 limits assumed): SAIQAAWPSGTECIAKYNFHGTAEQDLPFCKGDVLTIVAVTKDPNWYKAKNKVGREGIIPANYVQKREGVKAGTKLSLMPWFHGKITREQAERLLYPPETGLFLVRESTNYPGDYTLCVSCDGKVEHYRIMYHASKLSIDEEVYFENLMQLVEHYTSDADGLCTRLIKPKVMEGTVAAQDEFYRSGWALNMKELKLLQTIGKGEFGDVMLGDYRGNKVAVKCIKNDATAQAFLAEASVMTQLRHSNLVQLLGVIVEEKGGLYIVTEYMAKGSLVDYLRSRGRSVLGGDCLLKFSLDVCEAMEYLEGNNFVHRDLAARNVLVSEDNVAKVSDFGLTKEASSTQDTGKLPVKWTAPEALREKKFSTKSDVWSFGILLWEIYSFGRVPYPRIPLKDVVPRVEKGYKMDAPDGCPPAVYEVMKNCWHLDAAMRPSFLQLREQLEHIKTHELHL
Sequence of MAP kinase-interacting serine/threonine-protein kinase 2 (Homo sapiens) (Q9HBH9 whole entry, looked up): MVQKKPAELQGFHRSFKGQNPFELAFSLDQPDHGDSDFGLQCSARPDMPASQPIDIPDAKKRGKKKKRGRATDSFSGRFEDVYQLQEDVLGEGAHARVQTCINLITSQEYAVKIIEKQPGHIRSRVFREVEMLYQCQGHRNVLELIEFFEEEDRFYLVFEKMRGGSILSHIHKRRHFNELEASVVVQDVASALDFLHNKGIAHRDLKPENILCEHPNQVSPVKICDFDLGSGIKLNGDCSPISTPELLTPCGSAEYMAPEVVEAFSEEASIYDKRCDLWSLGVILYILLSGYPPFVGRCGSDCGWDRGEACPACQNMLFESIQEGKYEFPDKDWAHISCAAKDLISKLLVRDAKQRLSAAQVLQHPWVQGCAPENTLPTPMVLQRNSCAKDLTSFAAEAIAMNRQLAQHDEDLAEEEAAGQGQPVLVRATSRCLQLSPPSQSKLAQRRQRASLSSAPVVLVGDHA
Sequence of Mitogen-activated protein kinase kinase kinase 11 (Homo sapiens) (Q16584 whole entry, looked up): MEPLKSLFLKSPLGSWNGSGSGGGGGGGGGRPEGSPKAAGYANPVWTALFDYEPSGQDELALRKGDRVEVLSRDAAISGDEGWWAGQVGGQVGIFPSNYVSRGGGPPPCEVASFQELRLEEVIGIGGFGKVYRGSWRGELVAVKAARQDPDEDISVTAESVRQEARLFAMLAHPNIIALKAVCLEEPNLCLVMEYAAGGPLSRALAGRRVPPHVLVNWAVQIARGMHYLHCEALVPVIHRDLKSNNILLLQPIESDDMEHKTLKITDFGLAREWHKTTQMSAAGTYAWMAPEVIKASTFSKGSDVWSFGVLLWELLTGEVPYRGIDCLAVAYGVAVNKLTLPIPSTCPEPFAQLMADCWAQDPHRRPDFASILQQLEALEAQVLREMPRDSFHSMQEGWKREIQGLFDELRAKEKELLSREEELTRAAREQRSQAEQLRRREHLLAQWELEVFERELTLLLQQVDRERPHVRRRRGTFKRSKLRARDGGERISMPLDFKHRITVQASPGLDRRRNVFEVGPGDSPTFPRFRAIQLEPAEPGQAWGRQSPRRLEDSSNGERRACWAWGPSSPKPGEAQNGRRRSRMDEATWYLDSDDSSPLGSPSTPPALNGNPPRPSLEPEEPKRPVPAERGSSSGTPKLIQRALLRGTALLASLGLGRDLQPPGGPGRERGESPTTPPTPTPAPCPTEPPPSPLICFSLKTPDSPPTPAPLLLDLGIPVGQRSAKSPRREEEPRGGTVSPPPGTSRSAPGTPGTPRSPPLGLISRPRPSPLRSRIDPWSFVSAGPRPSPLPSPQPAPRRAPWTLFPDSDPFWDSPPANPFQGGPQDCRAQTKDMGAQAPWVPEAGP

On to `C[C@]1(O)C[C@@H](c2nc(-c3ccc4ccc(-c5ccccc5)nc4c3)c3c(N)nccn32)C1`, for which the inhibition is 0.31% in assay [1], -3.65% in assay [2] and -3.7% in assay [3].
In the case of `C[C@@]1(C(=O)Nc2ccc(F)nc2)CCCN1c1nc(Nc2cc(C3CC3)n[nH]2)c2cccn2n1`, the inhibition is 30% in assay [4]; -1.37% in assay [5]; 3.45% in assay [6]; -2.56% in assay [7]; -0.21% in assay [8].
